From article PMC10739246 (ACS Bio & Med Chem Au, 2023)
In brackets after ≈: the same amount, converted by molar mass. Entries after “also recorded” stand apart in the source; their conditions may differ. Where two headings read alike, the source gives them in different places.

What was measured:
[1] = tested on: MreB in B. subtilis MW10; assay: MreB mobility assay; assay type: cell-based, Bacillus subtilis; settings: B. subtilis MW10, 1 h of antibiotic exposure
Procedure: MreB is an actin homologue that forms filamentous structures along the lateral axis of the cell. It moves along the length of the cells in a spiraling pattern thereby driving lateral peptidoglycan synthesis.[36],[37] MreB mobility is sensitive to inhibition of peptidoglycan synthesis and so far, every cell wall synthesis inhibitor we tested abolished MreB movement (see Figure S70 for examples).
Expression of msfGFP-MreB was induced with 0.3% xylose. Pictures were taken after 1 h of antibiotic exposure. Two images of the same field of view were recorded 30 s apart and overlaid in ImageJ to visualize MreB mobility. A perfect overlap (yellow) indicates stalled MreB movement, while distinct red and green foci are indicative of MreB mobility. Scale bar 2 μm.
Fig. S70: MreB motility in B. subtilis MW10 after treatment with different cell wall synthesis inhibitors. Expression of GFP-MreB was induced with 0.3% xylose. Cells were treated with 1x […]
Two images of the same field of view were recorded 30 sec apart and overlaid in ImageJ to visualize MreB mobility. A perfect overlap (yellow) indicates stalled MreB movement while distinct red and green spots are indicative of MreB mobility. Scale bar 2 µm.

[2] = tested on: PonA in B. subtilis TNVS45; assay: PonA localization; settings: 1x MIC, 30 min (vancomycin) or 1 h
[3] = tested on: MraY in B. subtilis TNVS284; assay: MraY localization; settings: 1x MIC, 30 min (vancomycin) or 1 h
[4] = tested on: PbpB in B. subtilis EKB46; assay: PbpB localization; settings: 1x MIC, 30 min (vancomycin) or 1 h
[5] = tested on: MurG in B. subtilis TNVS175; assay: MurG localization; assay type: cell-based, Bacillus subtilis; settings: for protein localization MurG: 1x MIC, 30 min (vancomycin) or 1 h
[6] = tested on: B. subtilis DSM402; assay: Peptidoglycan integrity assay (acetic acid/methanol fixation); settings: 1x MIC; 30 min (cell wall inhibitors) or 60 min
[7] = tested on: B. subtilis DSM402; settings: for μM (concentration used, 1x MIC): Table 2, cells treated with 1x MIC
[8] = tested on: cell wall biosynthesis in B. subtilis DSM402; assay: Summary of cell wall synthesis experiments; assay type: cell-based, Bacillus subtilis
[9] = tested on: norfloxacin-resistant clinical isolate of E. coli; assay: MIC, microdilution, norfloxacin-resistant clinical isolate of E. coli; assay type: cell-based, Escherichia coli; settings: read-out: MIC E. coli (norfloxacin-resistant strain)
[10] = tested on: E. coli; assay: microbe, parasite or virus in culture; settings: Escherichia coli, read-out: MICC (MIC of the test compound alone)
[11] = tested on: P. aeruginosa (PAO1); assay: MIC, microdilution, P. aeruginosa PAO1; assay type: cell-based, Pseudomonas aeruginosa
[12] = tested on: S. aureus (ATCC 43300) MRSA; assay: MIC, microdilution, MRSA ATCC 43300; assay type: cell-based, Staphylococcus aureus; settings: norfloxacin-resistant strain
[13] = tested on: E. coli (W3110); assay: MIC, microdilution, E. coli W3110; assay type: cell-based, Escherichia coli
[14] = tested on: K. pneumoniae (ATCC 10031); assay: MIC, K. pneumoniae ATCC 10031; assay type: cell-based, Klebsiella pneumoniae
[15] = tested on: E. coli; settings: for FICC (fractional inhibitory concentration of the test compound): MICCcheckerboard/MICC; for Outcome: checkerboard with mupirocin; for FICM (MICMcheckerboard/MICM): mupirocin alone 64 µg/mL; for FICI (fractional inhibitory concentration index): with mupirocin, FICC+FICM
[16] = tested on: M. tuberculosis (MC26020); assay: microbe, parasite or virus in culture; assay type: cell-based, Mycobacterium tuberculosis; settings: for MIC: Mycobacterium tuberculosis, read-out: MIC M. tuberculosis (MC26020)
[17] = tested on: E. faecalis (ATCC 19433); assay: MIC, E. faecalis ATCC 19433; assay type: cell-based, Enterococcus faecalis
[18] = tested on: S. aureus (CCUG1800T); assay: MIC, microdilution, S. aureus CCUG1800T; assay type: cell-based, Staphylococcus aureus; settings: read-out: MIC S. aureus (CCUG1800T)
[19] = tested on: E. coli W3110; assay: Bacterial cytological profiling (BCP) in E. coli W3110; assay type: cell-based, Escherichia coli; settings: for DAPI / phase contrast / FM4-64: 1x MIC, 1 h; for DAPI: DNA condensation; for phase contrast: indicates cell lysis; for FM4-64: membrane stain; for gyrase inhibition / membrane damage: interpretation of BCP in E. coli
[20] = tested on: B. subtilis DSM402; assay: Bacterial cytological profiling (BCP) in B. subtilis DSM402; assay type: cell-based, Bacillus subtilis; settings: for DAPI / phase contrast / FM4-64: 1x MIC, 1 h; for DAPI: DNA condensation; for phase contrast: indicates cell lysis; for FM4-64: membrane stain; for gyrase inhibition / membrane damage: interpretation of BCP in B. subtilis
[21] = tested on: E. coli BCB472; assay: GlpT localization (inner membrane) in E. coli BCB472; settings: 1x MIC, 1 h; GFP-tagged membrane protein
[22] = tested on: B. subtilis DSM402; assay: microbe, parasite or virus in culture; settings: Bacillus subtilis, DSM402, read-out: concentration (MIC against B. subtilis DSM402)
[23] = target: T1, E. coli DNA gyrase (Escherichia coli, UniProt P0AES4+P0AES6); assay: In vitro DNA gyrase cleavage assay; assay type: biochemical
T1 construct: purchased Inspiralis
T1 sequence (P0AES4 whole entry, one chain of several): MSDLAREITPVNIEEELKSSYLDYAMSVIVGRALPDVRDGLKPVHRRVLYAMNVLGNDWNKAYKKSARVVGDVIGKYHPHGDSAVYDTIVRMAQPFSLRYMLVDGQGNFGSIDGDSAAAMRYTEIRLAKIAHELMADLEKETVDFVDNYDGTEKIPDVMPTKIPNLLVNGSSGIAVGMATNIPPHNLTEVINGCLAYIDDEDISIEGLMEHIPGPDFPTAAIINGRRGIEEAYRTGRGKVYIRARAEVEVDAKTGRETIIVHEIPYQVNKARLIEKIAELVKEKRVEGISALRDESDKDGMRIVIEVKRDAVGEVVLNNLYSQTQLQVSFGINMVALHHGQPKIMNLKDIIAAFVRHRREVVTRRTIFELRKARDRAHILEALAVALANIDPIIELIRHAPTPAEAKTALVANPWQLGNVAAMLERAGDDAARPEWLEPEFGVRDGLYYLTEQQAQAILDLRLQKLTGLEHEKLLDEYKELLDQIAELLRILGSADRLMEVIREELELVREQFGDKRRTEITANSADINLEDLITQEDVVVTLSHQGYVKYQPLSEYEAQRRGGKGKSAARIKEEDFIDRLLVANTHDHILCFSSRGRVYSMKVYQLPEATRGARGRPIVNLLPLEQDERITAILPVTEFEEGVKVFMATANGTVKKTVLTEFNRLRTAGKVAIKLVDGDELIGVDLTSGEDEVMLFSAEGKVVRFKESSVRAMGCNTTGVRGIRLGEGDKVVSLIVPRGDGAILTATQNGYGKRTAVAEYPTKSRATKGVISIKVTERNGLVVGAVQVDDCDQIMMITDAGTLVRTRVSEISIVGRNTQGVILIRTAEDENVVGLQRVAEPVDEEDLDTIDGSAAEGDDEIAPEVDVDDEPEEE

[24] = in vitro; settings: human
[25] = Escherichia coli, Gram-negative strain, average of duplicate experiments, read-out: MIC E. coli (W3110)
[26] = Klebsiella pneumoniae, ATCC10031
[27] = Enterococcus faecalis, ATCC19433

Structure (SMILES)	MreB mobility [1]	protein localization PonA [2]	protein localization MraY [3]	protein localization PbpB [4]	protein localization MurG [5]	PG integrity [6]	μM (concentration used, 1x MIC) [7] [µM]	CWB inhibited? [8]	MIC [10] [µg/mL]	MIC ([11]; Pseudomonas aeruginosa, PAO1) [µM]	MIC ([12]; Staphylococcus aureus) [µM]	MIC [13, 25] [µM]	MIC [14, 26] [µM]	Outcome [15]	FICM (MICMcheckerboard/MICM) [15]	MIC [16] [µM]	MIC [17, 27] [µM]	MIC ([18]; Staphylococcus aureus) [µM]	DAPI [19]	phase contrast [19]	further results
CN[C@H](CC(C)C)C(=O)N[C@H]1C(=O)N[C@@H](CC(N)=O)C(=O)N[C@H]2C(=O)N[C@H]3C(=O)N[C@H](C(=O)N[C@H](C(=O)O)c4cc(O)cc(O)c4-c4cc3ccc4O)[C@H](O)c3ccc(c(Cl)c3)Oc3cc2cc(c3O[C@@H]2O[C@H](CO)[C@@H](O)[C@H](O)[C@H]2O[C@H]2C[C@](C)(N)[C@H](O)[C@H](C)O2)Oc2ccc(cc2Cl)[C@H]1O [Van, vancomycin, reference compound]	static with foci	septal	rough	smooth	patchy/dispersed	compromised	0.68	yes													
CCn1cc(C(=O)O)c(=O)c2cc(F)c(N3CCN(C(=O)CN4CCOCC4)CC3)cc21 [7b]									32	860 (≈ 384 µg/mL)	287 (≈ 128 µg/mL)	71.7 (≈ 32 µg/mL)	> 1150	additive (>0.5 to ≤4.0 as additive (no interaction))	0.0313	1.67 (≈ 0.746 µg/mL)	8.95 (≈ 4 µg/mL)	4.47 (≈ 2 µg/mL)			MIC ([9]; Escherichia coli): 143 µM (≈ 64 µg/mL); FICC (fractional inhibitory concentration of the test compound) [15]: 0.5; FICI (fractional inhibitory concentration index) [15]: 0.5313
CCn1cc(C(=O)O)c(=O)c2cc(F)c(N3CCN(CN4C(=O)C(=O)c5cc(F)ccc54)CC3)cc21 [20a]	much smaller clusters and more clusters per cell; also recorded: mobile with static foci	neither compound affected the localization; also recorded: septal	neither compound affected the localization; also recorded: rough	neither compound affected the localization; also recorded: smooth	distinct MurG clusters all over the cells; also recorded: patchy	came close to the cutoff value; also recorded: intact	16.11	yes ^b											condensed	dark	MIC ([9]; norfloxacin-resistant clinical isolate): 16.11 µM (≈ 8 µg/mL); MIC [11]: 17.12 µM (≈ 8.5 µg/mL); FM4-64 [19]: smooth; gyrase inhibition [19]: yes; membrane damage [19]: no; MIC [12]: >1031.3 µM; MIC ([13]; Gram-negative strain, average of duplicate experiments, read-out: MIC E. coli (W3110)): 3.02 µM (≈ 1.5 µg/mL); concentration (MIC against E. coli W3110) ([13]; Tab. S11, concentrations represent MIC values): 3.02 µM; MIC [14]: 8.05 µM (≈ 4 µg/mL); MIC M. tuberculosis (MC26020) [16]: 64.45 µM (≈ 32 µg/mL); DAPI [20]: condensed; phase contrast [20]: dark; FM4-64 [20]: patchy; gyrase inhibition [20]: yes; membrane damage [20]: yes; MIC [17]: 3.02 µM (≈ 1.5 µg/mL); GlpT [21]: smooth; concentration (MIC against B. subtilis DSM402) ([7]; Tab. S13, concentrations represent MIC values): 16.11 µM; MIC [18]: 8.05 µM (≈ 4 µg/mL)
O=C(O)c1cn(C2CC2)c2cc(N3CCNCC3)c(F)cc2c1=O [Cip, ciprofloxacin, reference compound]	mobile	septal	rough	smooth		intact		no			96.6 (≈ 32 µg/mL)		7.54 (≈ 2.5 µg/mL)			2.26 (≈ 0.749 µg/mL)	6.03 (≈ 2 µg/mL)	3.01 (≈ 0.997 µg/mL)	condensed	dark	FM4-64 [19]: smooth; gyrase inhibition [19]: yes; membrane damage [19]: no; MreB mobility ([1]; listed as ciprofloxacin): did not affect either MreB mobility or localization; MIC [22]: 3.01 µM (≈ 0.997 µg/mL); DAPI [20]: condensed; phase contrast [20]: dark; FM4-64 [20]: few patches; gyrase inhibition [20]: yes; membrane damage [20]: possibly; GlpT [21]: smooth
CCn1cc(C(=O)O)c(=O)c2cc(F)c(N3CCN(C(=O)CN4CCCCC4)CC3)cc21 [7a]									16	> 1150	576 (≈ 256 µg/mL)	36 (≈ 16 µg/mL)	144 (≈ 64 µg/mL)	additive (>0.5 to ≤4.0 as additive (no interaction))	0.75	72 (≈ 32 µg/mL)	4.49 (≈ 2 µg/mL)	8.99 (≈ 4 µg/mL)			MIC ([9]; Escherichia coli): > 1150 µM; FICC (fractional inhibitory concentration of the test compound) [15]: 0.252; FICI (fractional inhibitory concentration index) [15]: 1.002
CCn1cc(C(=O)O)c(=O)c2cc(F)c(N3CCNCC3)cc21 [Nor, norfloxacin, reference compound]	mobile with static foci	septal/patchy	rough	smooth	smooth/spotty	intact	18.11	no	0.125	6.26 (≈ 2 µg/mL)	100 (≈ 32 µg/mL)	0.39 (≈ 0.125 µg/mL)	9.39 (≈ 3 µg/mL)	additive (>0.5 to ≤4.0 as additive (no interaction))	0.5	1.56 (≈ 0.498 µg/mL)	4.69 (≈ 1.5 µg/mL)	3.13 (≈ 1 µg/mL)	condensed	dark	MIC ([9]; Escherichia coli, norfloxacin-resistant clinical isolate): 50.1 µM (≈ 16 µg/mL); FM4-64 [19]: smooth; gyrase inhibition [19]: yes; membrane damage [19]: no; MIC ([13]; Escherichia coli, read-out: concentration (MIC against E. coli W3110)): 0.37 µM (≈ 0.118 µg/mL); MreB mobility ([1]; listed as norfloxacin): the same effect was observed; protein localization PonA ([2]; listed as norfloxacin): accumulation in distinct foci at the cell membrane; inhibition at 10 µM [23]: 73.6%; IC50 at 24 h [24]: 48.2 ± 3.92 µM; protein localization MraY ([3]; listed as norfloxacin): no effect on the other two proteins; MIC [22]: 18.1 µM (≈ 5.78 µg/mL); protein localization PbpB ([4]; listed as norfloxacin): no effect on the other two proteins; DAPI [20]: condensed; phase contrast [20]: dark; FM4-64 [20]: few patches; gyrase inhibition [20]: yes; membrane damage [20]: possibly; protein localization MurG ([5]; listed as norfloxacin): mostly smooth phenotype; larger MurG clusters ([5]; quantification of microscopy images): up to 30%; GlpT [21]: smooth
